The text below walks through data of patent US6414036B1, “Composition for treatment of infections of humans and animals” (Van Beek Global/Ninkov LLC, priority 1999, dated 2002).

The test deals with microorganism culture. In words: Comparative testing: time to death of the culture after contact. In kind it is cell-based. As to the method:
Isopropyl-o-cresol (95% purity) was obtained as described in Examples I and 2. A 50% solution of isopropyl-o-cresol was prepared by combining 50 grams of isopropyl-o-cresol with […] citric and propionic acid.
An antimicrobial compound containing isopropyl-o-cresol was prepared as described in Examples 3 and 4.
Each compound was administered to a culture of […]. Cell death was observed by monitoring whether or not the cells multiplied.
For example, when the microorganism culture was contacted with isopropyl-o-cresol alone the cells died within 6-8 hours after contact. When the microorganism culture was contacted with isopropyl-o-cresol combined with an organic acid to form a solution (without chemical modification of either species), the microorganisms died within 3-4 hours after exposure. When the microorganism culture was contacted with an antimicrobial compound containing isopropyl-o-cresol reacted with propionic and citric acids (50:50), the organisms died within 5-10 minutes after being contacted with the antimicrobial compound.

For the compound `CC(C)c1cc(CC(=O)O)cc(O)c1OC(=O)C(O)(CC(=O)O)CC(=O)O` [3-{[4-(carboxymethyl)-2-hydroxy-6-isopropylphenoxy]carbonyl}-3-hydroxypentanedioic acid], the “time within which the organisms died after contact” value lay in the range of 5 to 10 min.

With `Cc1ccc(C(C)C)cc1O` [isopropyl-o-cresol, 5-isopropyl-2-methylphenol], the “time within which the cells died after contact” value was 6 to 8 h.
